Values of other authors in patent publication US20090306209A1, “ENTERIC-COATED FORMULATIONS OF POLYETHYLENE GLYCOL AND ONE OR MORE SOLUBLE AMINO ACIDS FOR ORAL INGESTION AND ENHANCED UPTAKE OF SAME” (priority 2008, published 2009).
Where two headings read alike, the source gives them in different places.

Settings: for solubility in water (in words): temperature not stated

Row | Structure (SMILES) | solubility in water (in words) | other results
1 | Cl.NC(=O)CC[C@H](N)C(=O)O [L-glutamine-HCl] | very soluble in water | 
2 | NC(=O)CC[C@H](N)C(=O)O [L-glutamine] |  | solubility in water (water at 30° C.): 5 grams/100 ml
3 | CC(C)C[C@H](N)C(=O)O.Cl [L-leucine.HCl] | very soluble in water | 
4 | CC(C)C[C@H](N)C(=O)O [L-leucine] |  | solubility in water (water at 25° C.): 2.4 g/100 ml
